The text below walks through data of patent EP0955045A1, “DRUGS FOR IMPROVING OCULAR CIRCULATION DISORDERS” (Senju Pharmaceutical Co., Ltd., priority 1996, dated 1998).

Series [1] has as its system blood flow of optic nerve head induced by intravitreous injection of ET-1. As to the kind of experiment: Effect of topical instillation on the ET-1-induced decrease in optic nerve head blood flow (hydrogen clearance method). In kind it is in vivo, Male Dutch pigmented rabbits. The conditions noted are these: versus physiological saline in contralateral eye; 30 to 120 minutes after ET-1 injection; paired t-test; n=6. On the procedure:
The effect of topically applied amosulalol hydrochloride on the blood flow of optic nerve head induced by intravitreous injection of ET-1 in pigmented rabbits.
Male Dutch pigmented rabbits weighing about 2 kg were purchased from Fukusaki Rabbit Farmers Association and used after confirmation of absence of ocular abnormality. The rabbits were housed at 23 ±3 °C and 55±10% R.H. and put on a ration of 100 g/day of rabbit chow (Labo R Stock, Nippon Nosan Kogyo K.K.) with free access to tap water.
As the investigational drug, the anti-ocular circulatory disturbance composition containing 0.5% (w/v) of amosulalol hydrochloride as obtained in Example 7 was used. As a control drug, physiological saline solution was used. […]
The rabbit was placed in a retainer for rabbits and, after instillation of Mydrin P (Registered Trademark, Santen Pharmaceutical) for mydriasis and observation of the optic nerve head for any abnormality, general anesthesia was introduced by injecting urethane (dissolved in distilled water to 20% concentration), 1 g/kg, subcutaneously in the abdominal region. […] The half-life (T1/2) was determined from the line and the blood flow was calculated by means of Kety's theoretical formula (Journal of Clinical Investigate, 27, 476-483, 1948). […]

The next series has as its system mice. As to conditions: cited from earlier work.

Counter-ions that a name gives are not always drawn. Like-named read-outs stand apart in the source and are kept apart here.

Regarding `COc1ccccc1OCCNCC(O)c1ccc(C)c(S(N)(=O)=O)c1` (stereo not drawn) [amosulalol hydrochloride, 5-{1-hydroxy-2-[2-(2-methoxyphenoxy)ethylamino]ethyl}-2-methylbenzenesulfonamide], in series [1], the “inhibition of the ET-1-induced decrease in blood flow” value is given as “inhibited”. The acute toxicity entry with mice (intravenous administration) and in the series on mice (oral administration) was “very low” in each case.
